Reference: US8017350B2, “Glimepiride- and insulin-induced glycosylphosphatidylinositol-specific phospholipase C regulation” (Sanofi-Aventis Deutschland GmbH, priority 2004, dated 2011)

Key:
[1] = biological target: PI-PLC, Bacillus cereus (recombinant) (Bacillus cereus, UniProt P14262); assay: Inhibition of PI-PLC (B. cereus), cleavage of GPI-protein, TX-114 partitioning; assay type: biochemical
Excerpt: Human recombinant insulin, PIG41 (disclosed in “Frick, W. et al., (1998) Biochemistry 37, 13421-13436”) and glimepiride (trade name Amaryl) were supplied by the medicinal chemistry and synthesis departments of Aventis Pharma Germany (Frankfurt, Germany). 12-((7-nitrobenz-2-oxa-1,3-diazol-4-yl)amino)dodecanoic acid (NBD-FA) was synthesized as described in Müller et al., (1997) Biochem. Biophys. Acta 1347: 23-39. Collagenase (Worthington, CLS, type I, 250 units/mg) was provided by Biochrom (Berlin, Germany). Lipoprotein lipase (LPL, affinity-purified) from bovine milk, phospholipase A2 (honey bee venom), crude porcine pancreatic lipase (PL), recombinant PC- and PI-PLC (Bacillus cereus), crude PLD (cabbage) and defatted BSA (fraction V) were delivered by SigmalAldrich (Deisenhofen, Germany), crude PI-PLC (rat liver) and proteinase inhibitors were purchased from Roche Molecular Biochemicals (Mannheim, Germany). Recombinant GPI-PLC (Trypanosoma brucei) was obtained from Oxford Glycosystems (Oxford, UK). Inhibitors of PLA2 (AACOCF3) and PLC (U 73122) were from Tocris (Avonmouth, UK). Bisbodipy-C11-PC was bought from Molecular Probes (Eugene, Oreg.). Lipids were purchased from Avanti Polar Lipids (Birmingham, Ala.). […]

isolated rat adipocytes = assay: isoproterenol-induced lipolysis (glycerol release); assay type: cell-based
Method: Electroporation was performed as described in “Müller, G. et al., (2000) Mol. Cell. Biol. 20: 4708-4723”. Lipolysis was determined as release of glycerol or fluorescent NBD-FA from prelabeled and isoproterenol-stimulated adipocytes as described in “Müller, G. et al., (2003) Biochimie 85: 1245-1256”. Gce1 was detected by photolabeling of solubilized plasma membranes or hc/lcDIGs (10-50 μg protein) with 8-N3—[^32P]cAMP and subsequent phosphorimaging as described in “Müller, G. et al., (1994) Biochemistry 33: 12149-12159”. 5′-Nuc, aP and AChE activities were measured according to “Eliakim, R. et al., (1990) Biochim. Biophys. Acta 1355: 293-302”. Protein was determined using the BCA protein determination kit from Pierce (Rockford, Ill.) and BSA as calibration standard. SDS-PAGE was performed using precast gels (Novex, San Diego, Calif.; 10% Bis-Tris resolving gel, morpholinopropanesulfonic acid-SDS running buffer). Lumiimages were evaluated on a LumiImager using LumiImager software (Roche Diagnostics). Phosphor- and fluorescence images were processed and quantified using the Storm 860 PhosphorImager system (Molecular Dynamics, Gelsenkirchen, Germany). Figures were constructed using the ADOBE PHOTOSHOP software (Adobe Systems, Mountain View, Calif.).
FIG. 8: Effect of GPI-2350 on the glimepiride/insulin-induced metabolic activity. […]

[2] = system: GPI-anchored and acylated signaling proteins (pp59Lyn, Gce1, 5'-Nuc, aP) in DIGs of rat adipocytes; assay: Redistribution of pp59Lyn, Gce1, 5'-Nuc and aP from hcDIGs to lcDIGs in rat adipocytes; assay type: cell-based; details: GPI-2350 50 μM; Tab. 2

Chain of PI-PLC, Bacillus cereus (recombinant) (P14262 32-329 limits assumed): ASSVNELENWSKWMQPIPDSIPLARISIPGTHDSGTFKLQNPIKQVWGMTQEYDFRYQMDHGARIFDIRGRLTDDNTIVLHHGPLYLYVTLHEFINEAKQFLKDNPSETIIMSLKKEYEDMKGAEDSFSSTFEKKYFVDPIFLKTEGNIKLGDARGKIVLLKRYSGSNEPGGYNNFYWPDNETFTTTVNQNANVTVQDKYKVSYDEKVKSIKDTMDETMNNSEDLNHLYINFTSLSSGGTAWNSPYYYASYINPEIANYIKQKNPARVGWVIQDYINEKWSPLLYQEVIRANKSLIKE

**Q.** How did the inhibition in words [1] turn out when `CCCCCCCCCCCCP1(=O)O[C@@H]2[C@H](O)[C@@H](O)[C@H](O)[C@@H](O)[C@@H]2O1` (stereo partly shown) [GPI-2350, myo-inositol-1,2-cyclo-dodecylphosphonic acid] was run?
**A.** potent inhibitor

**Q.** And the “effect on insulin inhibition of lipolysis” value (isolated rat adipocytes)?
**A.** only marginally reduced

**Q.** What about the “effect on inhibition of lipolysis in response to glimepiride” value (isolated rat adipocytes; 50 μM) of the same compound?
**A.** almost complete blockade

**Q.** And the “effect on glimepiride-induced redistribution of 5'-Nuc, Gce1 and aP” value [2]?
**A.** completely eliminated
